Reference: the supplement of paper PMC10307832

Legend:
Assay in all cases: relative viability (nuclei count vs DMSO), 5 days (fraction); higher = more cells survive
ALW-II-49-7 + OSI-027 = compound: Cc1ccc(C(=O)Nc2cccc(C(F)(F)F)c2)cc1Nc1cncc(C(N)=O)c1 [ALW-II-49-7] + COc1cccc2cc(-c3nc([C@H]4CC[C@H](C(=O)O)CC4)n4ncnc(N)c34)[nH]c12 [OSI-027] (partner 0.5 µM)
Summary of the method: (§1)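 A single step with final 0.05% Triton X-100, 1% formaldehyde and 1 ug/ml Hoechst fixed the cells and stained nuclei 5 days after treatment. Lung cancer cell lines in 1536-well plates had been treated by pin tool the day after seeding with one drug alone or a fixed anchor-drug dose plus five library-drug doses (not always all listed) in √10 steps, and nuclei were counted on 4× images. Relative viability is the ratio of nuclei in treated wells to nuclei in vehicle wells, taken as the median of duplicate plates.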

ALW-II-49-7 + Phenformin = compound: Cc1ccc(C(=O)Nc2cccc(C(F)(F)F)c2)cc1Nc1cncc(C(N)=O)c1 [ALW-II-49-7] + N=C(N)NC(=N)NCCc1ccccc1 [Phenformin] (partner 250 µM)
Summary of the method: as §1

XMD13-2 + Pictilisib = compound: C1CC1C(=O)NC2=NNC3=C2C=CC(=C3)C4=CC(=CC=C4)C(=O)NC5CC5 [XMD13-2] + CS(=O)(=O)N1CCN(Cc2cc3nc(-c4cccc5[nH]ncc45)nc(N4CCOCC4)c3s2)CC1 [Pictilisib] (partner 1 µM)
Summary of the method: as §1

ALW-II-49-7 + Pictilisib = compound: Cc1ccc(C(=O)Nc2cccc(C(F)(F)F)c2)cc1Nc1cncc(C(N)=O)c1 [ALW-II-49-7] + CS(=O)(=O)N1CCN(Cc2cc3nc(-c4cccc5[nH]ncc45)nc(N4CCOCC4)c3s2)CC1 [Pictilisib] (partner 1 µM)
Summary of the method: as §1

| Cell Line | relative viability (ALW-II-49-7 + OSI-027; first compound 0.08 µM) | relative viability (ALW-II-49-7 + OSI-027; first compound 0.253 µM) | relative viability (ALW-II-49-7 + OSI-027; first compound 0.8 µM) | relative viability (ALW-II-49-7 + OSI-027; first compound 2.53 µM) | relative viability (ALW-II-49-7 + OSI-027; first compound 8 µM) | relative viability (ALW-II-49-7 + Phenformin; first compound 0.08 µM) | relative viability (ALW-II-49-7 + Phenformin; first compound 0.253 µM) | relative viability (ALW-II-49-7 + Phenformin; first compound 0.8 µM) | relative viability (ALW-II-49-7 + Phenformin; first compound 2.53 µM) | relative viability (ALW-II-49-7 + Phenformin; first compound 8 µM) | relative viability (XMD13-2 + Pictilisib; first compound 0.05 µM) | relative viability (XMD13-2 + Pictilisib; first compound 0.1581 µM) | relative viability (XMD13-2 + Pictilisib; first compound 0.5 µM) | relative viability (XMD13-2 + Pictilisib; first compound 1.581 µM) | relative viability (XMD13-2 + Pictilisib; first compound 5 µM) | relative viability (ALW-II-49-7 + Pictilisib; first compound 0.08 µM) | relative viability (ALW-II-49-7 + Pictilisib; first compound 0.253 µM) | relative viability (ALW-II-49-7 + Pictilisib; first compound 0.8 µM) | relative viability (ALW-II-49-7 + Pictilisib; first compound 2.53 µM) | relative viability (ALW-II-49-7 + Pictilisib; first compound 8 µM) |
| --- | --- | --- | --- | --- | --- | --- | --- | --- | --- | --- | --- | --- | --- | --- | --- | --- | --- | --- | --- | --- |
| NCI-H322M | 0.54 | 0.469 | 0.444 | 0.447 | 0.406 | 0.684 | 0.697 | 0.711 | 0.777 | 0.612 | 0.593 | 0.495 | 0.451 | 0.501 | 0.578 | 0.449 | 0.49 | 0.479 | 0.499 | 0.556 |
| NCI-H358 | 0.722 | 0.788 | 0.628 | 0.756 | 0.611 | 0.324 | 0.297 | 0.356 | 0.407 | 0.312 | 0.32 | 0.24 | 0.354 | 0.313 | 0.365 | 0.361 | 0.401 | 0.363 | 0.405 | 0.456 |
| NCI-H441 | 0.657 | 0.57 | 0.867 | 0.48 | 0.466 | 0.979 | 0.682 | 0.817 | 0.928 | 0.67 | 0.445 | 0.505 | 0.539 | 0.37 | 0.411 | 0.439 | 0.382 | 0.49 | 0.458 | 0.378 |
| NCI-H460 | 0.467 | 0.641 | 0.81 | 0.682 | 0.115 | 0.425 | 0.414 | 0.561 | 0.559 | 0.372 | 0.532 | 0.324 | 0.363 | 0.4 | 0.36 | 0.443 | 0.337 | 0.357 | 0.431 | 0.4 |
| NCI-H520 | 0.258 | 0.249 | 0.25 | 0.242 | 0.262 | 0.57 | 0.604 | 0.624 | 0.681 | 0.562 | 0.318 | 0.299 | 0.313 | 0.275 | 0.251 | 0.234 | 0.302 |  | 0.264 | 0.259 |
| NCI-H596 | 0.777 | 0.749 | 0.589 | 0.624 | 0.776 | 0.804 | 0.706 | 0.596 | 0.622 | 0.788 | 0.447 | 0.406 | 0.351 | 0.384 | 0.411 | 0.423 | 0.418 | 0.416 | 0.369 | 0.397 |
| NCI-H647 | 0.665 | 0.736 | 0.495 | 0.434 | 0.619 | 0.312 | 0.325 | 0.551 | 0.539 | 0.326 | 0.534 | 0.491 | 0.393 | 0.296 | 0.277 | 0.489 | 0.507 |  | 0.469 | 0.499 |
| NCI-H650 | 0.519 | 0.509 | 0.511 | 0.419 | 0.391 | 0.519 | 0.481 | 0.396 | 0.449 | 0.334 | 0.921 | 0.827 | 0.924 | 0.859 | 0.801 | 0.893 | 0.873 | 0.763 | 0.39 | 0.528 |
| NCI-H661 | 0.552 | 0.773 | 0.781 | 0.78 | 0.452 | 0.28 | 0.282 | 0.278 | 0.295 | 0.297 | 0.469 | 0.529 | 0.421 | 0.344 | 0.383 | 0.377 | 0.345 | 0.348 |  | 0.351 |
| NCI-H727 | 0.688 | 0.611 | 0.429 | 0.527 | 0.511 | 0.52 | 0.593 | 0.537 | 0.475 | 0.51 | 0.421 | 0.321 | 0.36 | 0.527 | 0.551 | 0.511 | 0.415 | 0.267 | 0.432 | 0.292 |
| NCI-H838 | 0.352 | 0.385 | 0.389 | 0.434 | 0.378 | 0.412 | 0.45 | 0.628 | 0.626 | 0.442 | 0.423 | 0.512 | 0.497 | 0.447 | 0.466 | 0.342 | 0.464 | 0.432 | 0.46 | 0.393 |
| NCI-H1355 | 0.372 | 0.404 | 0.363 | 0.364 | 0.353 | 0.457 | 0.4 | 0.4 | 0.443 | 0.379 | 0.45 | 0.406 | 0.415 | 0.496 | 0.366 | 0.413 | 0.469 | 0.395 | 0.322 | 0.345 |
| NCI-H1395 | 0.593 | 0.69 | 0.736 | 0.677 | 0.62 | 0.438 | 0.512 | 0.419 | 0.475 | 0.428 | 0.724 | 0.646 | 0.623 | 0.574 | 0.528 | 0.646 | 1.05 | 0.653 | 0.581 | 0.62 |
| NCI-H1437 | 0.835 | 0.744 | 0.751 | 0.877 | 0.75 | 0.266 | 0.297 | 0.301 | 0.297 | 0.263 | 0.522 | 0.454 | 0.601 | 0.509 | 0.382 | 0.435 | 0.414 |  | 0.432 | 0.399 |
| NCI-H1563 | 0.717 | 0.71 | 0.731 | 0.782 | 0.679 | 0.65 | 0.71 | 0.67 | 0.683 | 0.606 | 0.581 | 0.665 | 0.737 | 0.651 | 0.605 | 0.573 | 0.661 | 0.643 | 0.595 | 0.657 |
| NCI-H1650 | 0.444 | 0.412 | 0.451 | 0.631 | 0.687 | 0.447 | 0.465 | 0.427 | 0.492 | 0.476 | 0.687 | 0.452 | 0.644 | 0.542 | 0.541 | 0.583 | 0.5 | 0.581 | 0.618 | 0.6 |
